Measurements taken from ChEMBL document CHEMBL1201862, “PubChem BioAssay data set” (2004).
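How tested: cells in 96-well plates exposed to compound for 48 hours at five concentrations. GI50 = concentration required for 50% inhibition of growth.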 The source made the active and inactive calls. Rule as the data show it: active = GI50 up to about 1.1 µM and inactive = higher.

Legend:
Assay in all cases: NCI anticancer screen, dose series, 48 h
BT-549 = test system: BT-549
MCF7 = test system: MCF7
LOX IMVI = test system: LOX IMVI
Malme-3M = test system: Malme-3M
SW-620 = test system: SW-620
SF-268 = test system: SF-268
UACC-257 = test system: UACC-257
MOLT-4 = test system: MOLT-4
HL-60 = test system: HL-60
OVCAR-4 = test system: OVCAR-4
OVCAR-8 = test system: OVCAR-8
A498 = test system: A498
U-251 = test system: U-251
SK-MEL-28 = test system: SK-MEL-28
HCT-15 = test system: HCT-15
DU-145 = test system: DU-145
HT-29 = test system: HT-29
COLO 205 = test system: COLO 205
SNB-19 = test system: SNB-19

SMILES	GI50 (BT-549)	GI50 (MCF7)	GI50 (LOX IMVI)	GI50 (Malme-3M)	GI50 (SW-620)	GI50 (SF-268)	GI50 (UACC-257)	GI50 (MOLT-4)	GI50 (HL-60)	GI50 (OVCAR-4)	GI50 (OVCAR-8)	GI50 (A498)	GI50 (U-251)	GI50 (SK-MEL-28)	GI50 (HCT-15) [µM]	GI50 (DU-145)	GI50 (HT-29)	GI50 (COLO 205)	GI50 (SNB-19)
c1ccc2c(c1)nnn2C1CCCCO1 (stereo not drawn)	> 100 µM (inactive)	> 100 µM (inactive)	> 100 µM (inactive)	> 100 µM (inactive)	> 100 µM (inactive)	> 100 µM (inactive)	> 100 µM (inactive)	> 100 µM (inactive)	> 100 µM (inactive)	> 100 µM (inactive)	> 100 µM (inactive)	> 100 µM (inactive)	> 100 µM (inactive)	> 100 µM (inactive)	> 100	> 100 µM (inactive)	> 100 µM (inactive)	> 100 µM (inactive)	> 100 µM (inactive)
COc1ccc(C(NCCNC(c2ccc(OC)c(OC)c2)c2cc3c(cc2O)OCO3)c2cc3c(cc2O)OCO3)cc1OC (stereo not drawn)	2.12 µM (inactive)	1.42 µM (inactive)	1.8 µM (inactive)	4.5 µM (inactive)	1.29 µM (inactive)	1.63 µM (inactive)	4.26 µM (inactive)	0.918 µM (active)	1.71 µM (inactive)	4.83 µM (inactive)	1.89 µM (inactive)	7.45 µM (inactive)	2.87 µM (inactive)	1.62 µM (inactive)	1.85	2.8 µM (inactive)	2.64 µM (inactive)	2.89 µM (inactive)	4.06 µM (inactive)
CN(CCNC(=O)c1nn(-c2ccccc2)c2c1ccc1ccccc12)CCNC(=O)c1nn(-c2ccccc2)c2c1ccc1ccccc12	10.2 µM (inactive)	1.98 µM (inactive)	1.77 µM (inactive)	2.23 µM (inactive)	2.17 µM (inactive)	2.38 µM (inactive)	1.71 µM (inactive)	0.38 µM (active)	1.95 µM (inactive)	3.39 µM (inactive)	1.79 µM (inactive)	2 µM (inactive)	1.57 µM (inactive)	1.7 µM (inactive)	1.76	4.85 µM (inactive)	2.94 µM (inactive)	1.54 µM (inactive)	2.54 µM (inactive)
CS(=N)(=O)CCC(N)P(=O)(O)O (stereo not drawn)	> 100 µM (inactive)	> 100 µM (inactive)	> 100 µM (inactive)	> 100 µM (inactive)	> 100 µM (inactive)	> 100 µM (inactive)	> 100 µM (inactive)	> 100 µM (inactive)	> 100 µM (inactive)	> 100 µM (inactive)	> 100 µM (inactive)	> 100 µM (inactive)	> 100 µM (inactive)	> 100 µM (inactive)	> 100	> 100 µM (inactive)	> 100 µM (inactive)	> 100 µM (inactive)	> 100 µM (inactive)
COc1ccc(CNNC(=O)c2cc[n+]([BH2-]C#N)cc2)cc1OC	> 100 µM (inactive)	> 100 µM (inactive)	> 100 µM (inactive)	> 100 µM (inactive)	> 100 µM (inactive)	> 100 µM (inactive)	> 100 µM (inactive)	> 100 µM (inactive)	> 100 µM (inactive)	> 100 µM (inactive)	> 100 µM (inactive)	> 100 µM (inactive)	> 100 µM (inactive)	> 100 µM (inactive)	> 100	> 100 µM (inactive)		> 100 µM (inactive)	> 100 µM (inactive)
c1ccc([I+]c2ccccc2)cc1	> 100 µM (inactive)	> 100 µM (inactive)	> 100 µM (inactive)	> 100 µM (inactive)	> 100 µM (inactive)	> 100 µM (inactive)	> 100 µM (inactive)	> 100 µM (inactive)	> 100 µM (inactive)	> 100 µM (inactive)	> 100 µM (inactive)	> 100 µM (inactive)	> 100 µM (inactive)	> 100 µM (inactive)	> 100	> 100 µM (inactive)	> 100 µM (inactive)	> 100 µM (inactive)	> 100 µM (inactive)
